Results as given in ChEMBL document CHEMBL6087484, “Discovery of Novel Small-Molecule Inhibitors Disrupting the MTDH-SND1 Protein-Protein Interaction” (J Med Chem, 2025).

Tested on: MCF7
Test: Anti-proliferative activity against human MCF7 cells assessed as cell viability measured after 72 hrs by CCK8 assay
Conditions: MCF7, 72 h

SMILES	IC50 [µM]
COc1cc(NS(=O)(=O)c2cccc3cccnc23)c2ncccc2c1	2.35
O=S(=O)(Nc1cc(Cl)cc2cccnc12)c1cccc2cccnc12	1.17
CC(C)N1CCN(c2ccc(NS(=O)(=O)c3cccc4cccnc34)c3ncccc23)CC1	6.42
O=S(=O)(Nc1ccc(Br)c2cccnc12)c1cccc2cccnc12	2.19
O=S(=O)(Nc1cc(Br)cc2cccnc12)c1cccc2cccnc12	2.11

Continued, values first:

IC50 [µM]	SMILES
0.901	O=S(=O)(Nc1cccc2cccnc12)c1cccc2cccnc12
4.38	O=S(=O)(Nc1cccc2cc(Br)cnc12)c1cccc2cccnc12
> 10	Cc1ccc2cccc(NS(=O)(=O)c3cccc4cccnc34)c2n1
> 10	COc1ccc(Cl)cc1S(=O)(=O)Nc1cccn2ncnc12
> 10	O=S(=O)(Nc1cccc2cc(Nc3ccccc3)cnc12)c1cccc2cccnc12
2.89	O=S(=O)(Nc1ccc(Cl)c2cccnc12)c1cccc2cccnc12
